Assay results taken from US6133248A, “Polar drug of prodrug compositions with extended shelf-life storage and a method of making thereof” (priority 1998, dated 2000).
Where two headings read alike, the source gives them in different places. Each block holds one molecule with its values, some of them ahead of it.

Columns and labels:
[1] = for Kd: 0.02 m tris buffer
Experimental: After sonication and mixing by vortex mixer, the phenytoin-suspended solutions were placed in a shaking, temperature controlled water bath for at least 5 days at 25° C. After equilibration, checked by periodic sampling, the suspensions were filtered through a membrane filter (Acrodisc, PVDF 0.2 μm, Gelman). The filtrate was isolated and diluted with HPLC mobile phase and the concentration of phenytoin was determined by HPLC. This work was performed in duplicate.
This phenomena is illustrated in Scheme (2). The binding constant for the phenytoin/(SBE)7m-β-CD complex, K1 can be calculated by the slope and intercept of the data from FIG. 3 (absence of fosphenytoin) according to Eq 2 (Hiquchi, T and Connors K. A.) […]
K1 =Slope/Intercept(1-Slope) (2)
K2, the binding constant for the fosphenytoin/(SBE)7m-β-CD complex can be calculated according to Eq. 6 as follows; K1 =(St-So')/(St-(St-So'))(Lt-(St-so')-x)
K1 =Slope/So'(1-Slope-x/Lt) (3)
K2 =x/(St'-x)(Lt-(St-So')-x
=(x/Lt)/(St'-x)(1-Slope-x/Lt) (4) […]
x/Lt=1-Slope-Slope/K1 So' (5)
Eq. 4 and Eq. 5 lead to Eqs. 6 and 7, K2 =(1/(St'-x))K1 So'/Slope-So'K1 -1) (6)
≈(1/St')(K1 So'/Slope-So'K1 -1) (7) where various terms are defined in Scheme (2). The term, St'-x, in Eq. 6 represents the free fraction of fosphenytoin in the presence of CD and theoretically should change with increasing CD concentration.

[2] = literature value; cited from earlier work
[3] = high pH 8.5 formulation, refrigeration; cited from earlier work
[4] = pH values >8.0; cited from earlier work
[5] = 25° C.
Text: Two different shelf-life criteria were considered; time to exceed phenytoin solubility in the presence and absence of (SBE)7m-β-CD and 0.5% phenytoin production.

[6] = Arrhenius plot for phenytoin production rate from fosphenytoin; type: physicochemical
Text: These values are higher than those reported previously; 30.8 kcal/mol and also are higher than Ea values reported from most other drug degradation studies (10-30 kcal/mol) (Yoshioka, S. Stability of Drugs and Dosage Forms, Nankodo Co. Ltd., Tokyo, 1995; pp.30-67). One possible explanation for the difference may be the effect of temperature on the pH of tris buffer solutions. […] Consequently, the change of phenytoin production rate can attribute not only to the direct effect of temperature on the kinetics but also the effect of temperature on pH. Since our principal goal was to study the effect of temperature on the stability of some protype formulations, buffer pH values were not adjusted at each temperature.

[7] = cited from earlier work
[8] = Phenytoin solubility in absence and presence of fosphenytoin and (SBE)7m-β-CD; type: physicochemical; conditions: 0.02 m tris buffer
Experimental: This work was performed in duplicate.
The fosphenytoin concentration of 80.6 mg/ml (75 mg/ml anhydrous fosphenytoin) was the same as the commercial product. […] The solubility of phenytoin is elevated in the presence of fosphenytoin probably through micellar or complex formation (Anderson et al. J. Pharm. Sci. 74 375-381; Muller et al. Int. J. Pharm. 75 201-209, 1991).

[9] = AHFS Drug Information; cited from earlier work

Kd ([1]; pH 7.4): 25.6 mM | Kd ([1]; pH 8): 29.4 mM | Kinetics of phenytoin production (0.02M tris, 60° C., pH 7.4 and 8.0): apparent zero-order kinetics | Kinetics of phenytoin production (all temperatures, CD concentrations and both pH values): pseudo zero-order kinetics | Rate of Phenytoin Production (pH 7.4, 25° C., 0 mM CD): 0.160 µg/mL/day | Rate of Phenytoin Production (pH 7.4, 25° C., 60 mM CD): 0.133 µg/mL/day | Rate of Phenytoin Production (pH 7.4, 37° C., 60 mM CD): 0.993 µg/mL/day | Rate of Phenytoin Production (pH 7.4, 50° C., 60 mM CD): 21.37 µg/mL/day | Rate of Phenytoin Production (pH 7.4, 60° C., 0 mM CD): 111.8 µg/mL/day | Rate of Phenytoin Production (pH 8.0, 25° C., 0 mM CD): 0.083 µg/mL/day | Rate of Phenytoin Production (pH 8.0, 25° C., 30 mM CD): 0.088 µg/mL/day | Rate of Phenytoin Production (pH 8.0, 25° C., 60 mM CD): 0.075 µg/mL/day | Rate of Phenytoin Production (pH 8.0, 37° C., 0 mM CD): 0.634 µg/mL/day | Rate of Phenytoin Production (pH 8.0, 37° C., 30 mM CD): 0.600 µg/mL/day | Rate of Phenytoin Production (pH 8.0, 37° C., 60 mM CD): 0.562 µg/mL/day | Rate of Phenytoin Production (pH 8.0, 50° C., 30 mM CD): 14.43 µg/mL/day | Rate of Phenytoin Production (pH 8.0, 50° C., 60 mM CD): 13.82 µg/mL/day | Rate of Phenytoin Production (pH 8.0, 60° C., 0 mM CD): 67.20 µg/mL/day | Time without phenytoin precipitation ([5]; 60 mM (SBE)7m-β-CD, either pH): over two years | Physically stable formulations, shelf-life ([5]; pH range 7.4-8.0): greater than two years | Time without phenytoin precipitation ([5]; pH 8.0, 60 mM (SBE)7m-β-CD): at least 17 years | Shelf-life by 0.5% phenytoin production criterion ([5]; with (SBE)7m-β-CD): greater than two year | Ea (apparent activation energy), phenytoin production ([6]; pH 7.4): 38.9 kcal/mol | Ea (apparent activation energy), phenytoin production ([6]; pH 8.0): 39.5 kcal/mol
Structure (SMILES): O=C1NC(c2ccccc2)(c2ccccc2)C(=O)N1COP(=O)(O)O [fosphenytoin]
Ea reported previously [2]: 30.8 kcal/mol | Shelf-life of the prodrug product [3]: two years | Influence of (SBE)7m-β-CD on phenytoin production rate (30 or 60 mM (SBE)7m-β-CD, fosphenytoin 80.6 mg/ml): did not appear to influence the phenytoin production rate although here was a very slight trend to greater stability with increasing (SBE)7m-β-CD concentration | Degradant peaks (phenytoin vs earlier eluting peak) (pH 7.4): phenytoin was the major degradant peak observed | Degradant peaks (phenytoin vs earlier eluting peak) (pH 8): this peak had an area comparable to that of phenytoin | Stability at higher pH [4]: more unstable

Structure (SMILES): O=C1NC(=O)C(c2ccccc2)(c2ccccc2)N1 [phenytoin]
Kd ([1]; pH 7.4): 0.932 mM | Kd ([1]; pH 8): 1.26 mM | Type of phase solubility diagram ([1]; 25° C., pH 7.4 and 8.0, presence or absence of 80.6 mg/ml fosphenytoin): AL-type | Solubility enhancement in presence of fosphenytoin vs absence ([1]; (SBE)7m-β-CD, 25° C.): lower than that in the absence of fosphenytoin | Solubility ([7]; pH values <8): 20 to 25 µg/mL | Intrinsic aqueous solubility ([7]; phenytoin, background): less than 25 μg/ml | solubility at 120 h ([8]; pH 7.4, aqueous buffer, pH 7.4, 0 mM (SBE)7m-β-CD, 25° C., read-out: Phenytoin Conc. (Solubility Criteria)): 49.8 µg/mL | solubility at 120 h ([8]; pH 7.4, aqueous buffer, pH 7.4, 60 mM (SBE)7m-β-CD, 25° C., read-out: Phenytoin Conc. (Solubility Criteria)): 451 µg/mL | solubility at 120 h ([8]; pH 7.4, aqueous buffer, pH 7.4, 25° C., absence of fosphenytoin, read-out: Solubility of phenytoin): 18.1 µg/mL | solubility at 120 h ([8]; pH 7.4, aqueous buffer, pH 7.4, 25° C., presence of fosphenytoin 80.6 mg/ml, read-out: Solubility of phenytoin): 49.8 µg/mL | solubility at 120 h ([8]; pH 8, aqueous buffer, pH 8.0, 0 mM (SBE)7m-β-CD, 25° C., read-out: Phenytoin Conc. (Solubility Criteria)): 61.9 µg/mL | solubility at 120 h ([8]; pH 8, aqueous buffer, pH 8.0, 30 mM (SBE)7m-β-CD, 25° C., read-out: Phenytoin Conc. (Solubility Criteria)): 274 µg/mL | solubility at 120 h ([8]; pH 8, aqueous buffer, pH 8.0, 60 mM (SBE)7m-β-CD, 25° C., read-out: Phenytoin Conc. (Solubility Criteria)): 476 µg/mL | solubility at 120 h ([8]; pH 8, aqueous buffer, pH 8.0, 25° C., presence of fosphenytoin 80.6 mg/ml, read-out: Solubility of phenytoin): 61.9 µg/mL | solubility at 120 h ([8]; pH 8, aqueous buffer, pH 8.0, 25° C., printed 'in the absence of phenytoin', read-out: Solubility of phenytoin): 27.5 µg/mL | pKa value [9]: 8.06-8.33
